Source: US12702712B2, “Enteroendocrine cell-targeting polymer substance conjugated with photosensitizer, and medical use thereof for ameliorating metabolic disease” (The Catholic University of Korea Industry-Academic …, priority 2020, dated 2026)

Experiments:
[1] = Singlet oxygen formation in aqueous phase (SOSG fluorescence, laser irradiation); details: 5 μg/mL in aqueous phase with SOSG; laser 670 nm, 4 J/cm^2, 20 mW/cm^2, 200 seconds
Method: Singlet oxygen sensor green (SOSG), which is a fluorescent detecting substance that directly reacts with singlet oxygen, was dispersed in an aqueous phase, oleic acid-polyethylene glycol-chlorin e6 (5 μg/mL) was added thereto, and the resulting mixture was mixed. As a comparative example, chlorin e6 (5 μg/mL) or polyethylene glycol-chlorin e6 (5 μg/mL) was used. When OA-PEG-Ce6 and SOSG coexisted in the aqueous phase, the mixture was irradiated with a laser (670 nm) (4 J/cm^2, 20 mW/cm^2, 200 seconds), and the degree of fluorescence was measured by an RF analyzer.

[2] = Dispersion in aqueous phase; assay type: physicochemical; details: water
[3] = system: Human duodenal cells (HUTU-80); test: Intracellular uptake by flow cytometry; assay type: cell-based; details: 2 μg/ml (based on chlorin e6), 1 hour and 4 hours
Method: Thereafter, the cells were treated with OA-PEG-Ce6 and polyethylene glycol-chlorin e6 as a comparative group at a concentration of 2 μg/ml (based on chlorin e6) for 1 hour and 4 hours, respectively. Thereafter, the cells were washed three times with DPBS, collected, and analyzed by a flow cytometer (BD FACSCanto II).

[4] = system: Human duodenal cells (HUTU-80); test: Intracellular distribution by confocal laser scanning microscopy; assay type: cell-based; details: 2 μg/ml (based on chlorin e6), 1 hour; CLSM
Method: (§1) Human duodenal cells (HUTU-80) and canine kidney epithelial cells (MDCK) were treated with OA-PEG-Ce6 and polyethylene glycol-chlorin e6 at a concentration of 2 μg/ml (based on chlorin e6) for 1 hour. Thereafter, the cells were washed three times with DPBS and fixed with 4% paraformaldehyde, and the cell nuclei were stained at 4° C. Thereafter, cell images were confirmed under a confocal laser scanning microscope (CLSM).

[5] = system: canine kidney epithelial cells (MDCK); test: as above; assay type: cell-based; details: 2 μg/ml (based on chlorin e6), 1 hour; CLSM
Method: as §1

[6] = system: Human duodenal cells (HUTU-80); test: Intracellular active oxygen formation (DCFDA, confocal microscope); assay type: cell-based; details: 2 μg/ml (based on chlorin e6), 2 hours, light 0, 0.5, 1 and 1.5 J/cm^2, increasing intensity
Method: Thereafter, the cells were treated with OA-PEG-Ce6 at a concentration of 2 μg/ml (based on chlorin e6) for 2 hours, and washed three times with DPBS. The cells were treated with DCFDA diluted in DPBS, cultured for 30 minutes, and further washed three times with DPBS. The cells were irradiated with a light with an intensity of 0, 0.5, 1 and 1.5 J/cm^2 to induce a reaction between DCFDA incorporated into the cells and singlet oxygen. Fluorescence appears when the two substances react. Thereafter, the cells were fixed with 4% paraformaldehyde, the cell nuclei were stained with DAPI, and images were confirmed under a confocal microscope.

[7] = system: Human duodenal cells (HUTU-80); test: Competitive inhibition of uptake in presence of fatty acid (flow cytometry); assay type: cell-based; details: 10 μg/ml (based on chlorin e6) with 0.10 to 10.00 mg/ml oleylethanolamine, 2 hours
Method: Thereafter, the cells were treated with both 0.10 to 10.00 mg/ml oleylethanolamine and 10 μg/ml OA-PEG-Ce6 (based on chlorin e6) and cultured for 2 hours. Thereafter, the cells were washed three times with DPBS, collected, and analyzed by a flow cytometer (BD FACSCanto II).

[8] = target: T1, HEK-293 cells expressing GPR119 (Homo sapiens, UniProt Q8TDV5); test: Uptake according to GPR119 expression level (flow cytometry); assay type: cell-based; details: GPR119 expression vector 0, 4 and 8 μg, 2 μg/ml (based on chlorin e6)
T1 construct: expressed in transfected cells; host or cells: HEK-293
T1 sequence (Q8TDV5 1-335): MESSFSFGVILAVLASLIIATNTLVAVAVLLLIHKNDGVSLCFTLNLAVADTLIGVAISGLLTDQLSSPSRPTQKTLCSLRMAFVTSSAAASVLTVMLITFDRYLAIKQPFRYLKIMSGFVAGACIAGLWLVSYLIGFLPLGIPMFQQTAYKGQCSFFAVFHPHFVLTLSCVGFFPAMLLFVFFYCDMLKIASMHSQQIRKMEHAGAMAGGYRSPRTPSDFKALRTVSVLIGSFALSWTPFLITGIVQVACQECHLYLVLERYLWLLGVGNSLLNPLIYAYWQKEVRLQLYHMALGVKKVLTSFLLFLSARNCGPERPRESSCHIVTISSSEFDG
Method: In order to confirm the mechanism by which OA-PEG-Ce6 targets enteroendocrine cells, human fetal kidney cells (HEK-293) expressing G protein-coupled receptor 119 (GPR119), which is a receptor known to recognize fatty acids, were produced.
After 24 hours, a GPR119 expression vector (0, 4 and 8 μg) and polyethyleneimine (PEI) were added to a serum-free medium and mixed for 30 minutes so as to form a complex, and then each cell was treated with the complex for 4 hours. Thereafter, the medium was replaced with a medium containing bovine serum, and GPR119 was allowed to be expressed by culturing the cells for 48 hours. It was confirmed by western blotting whether GPR119 was expressed.
HEK-293 cells expressing GPR119 were treated with OA-PEG-Ce6 and polyethylene glycol-chlorin e6 as a comparative group at a concentration of 2 μg/ml (based on chlorin e6) for 1 hour and 4 hours, respectively. Thereafter, the cells were washed three times with DPBS, collected, and analyzed by a flow cytometer (BD FACSCanto II).

[9] = Obesity amelioration: body weight and fat mass after photodynamic therapy; assay type: in vivo, C57BL6 mice; details: high-fat diet mice, oral 10 mg/kg (based on chlorin e6), 22 days; for body weight, last day relative to before therapy, administration+light irradiation / fat mass, last day relative to before therapy, administration+light irradiation: laser 0.7 J/cm^2, repeated after 4 days; for fat mass, last day relative to before therapy, administration+light irradiation / fat mass, last day relative to before therapy, administration only: EchoMRI; for body weight, last day relative to before therapy, administration only / fat mass, last day relative to before therapy, administration only: no light
Method: After 4 days, photodynamic therapy was performed once again by the same method, and then, changes in body weight and fat mass were measured every other day for 22 days. The experimental results were shown in a bar graph by dividing the body weight and fat mass on the last day of the experiment by the body weight and fat mass before the photodynamic therapy and then converting the obtained values into percentages. Fat mass was measured with EchoMRI-500 (Echo MRI, Houston, TX).

GIP = test: Plasma GIP by ELISA after photodynamic therapy; assay type: in vivo, C57BL6 mice; details: high-fat diet mice, oral 10 mg/kg (based on chlorin e6), after 22 days; for plasma GIP concentration, administration+light irradiation: laser 0.7 J/cm^2, repeated after 4 days; for plasma GIP concentration, administration only: no light
Method: (§2) After 4 days, photodynamic therapy was performed once again by the same method, and then, mouse blood was collected after 22 days. Plasma was isolated from blood to measure the concentrations of GIP (Merk Millipore, USA) and insulin (anti-insulin+pro insulin antibody (10 μg/ml, ab8304, Abcam)) by enzyme-linked immunosorbent assay (ELISA).

insulin = test: Plasma insulin by ELISA after photodynamic therapy; assay type: in vivo, C57BL6 mice; details: high-fat diet mice, oral 10 mg/kg (based on chlorin e6), after 22 days; for plasma insulin concentration, administration+light irradiation: laser 0.7 J/cm^2, repeated after 4 days; for plasma insulin concentration, administration only: no light
Method: as §2

[10] = system: Human duodenal cells (HUTU-80)
Method: (§3) Human duodenal cells (HUTU-80) and canine kidney cells (MDCK) were aliquoted at a density of 1×10^4 cells/well in 0.2 ml portions in each well of a 96-well plate and cultured under conditions of 37° C. and 5% CO2 for 24 hours. On the next day, each well was treated with OA-PEG-Ce6 or polyethylene glycol-chlorin e6 at a concentration of 0.25 to 10 μg/ml (based on chlorin e6), and the corresponding treatment was performed by dividing a light non-irradiation group and a light irradiation group (irradiated with a laser with a wavelength of 671 nm at an intensity of 2 J/cm^2). Thereafter, cell viability was confirmed by the MTT test method.

[11] = mouse, in vivo, po, 10 mg/kg
Method: C57BL6 mice were fed a high-fat diet for 8 weeks to induce obese and diabetic conditions, and were divided into a control (PBS), a light irradiation group (Laser), a polyethylene glycol-chlorin e6 adiministration group (PC), a polyethylene glycol-chlorin e6 adiministration+light irradiation group (PCL), an OA-PEG-Ce6 adiministration group (OPC) and an OA-PEG-Ce6 adiministration+light sirradiation group (OPCL). Each group was orally administered the treated substance at a concentration of 10 mg/kg (based on chlorin e6), and after 30 minutes, a catheter was injected for endoscopic access and a laser was irradiated through the mouth.
Meanwhile, the accumulation degree of photosensitizer in the removed duodenum was confirmed with a fluorescence-labeled organism bioimaging instrument (Neo Science), and the fluorescence intensity of each tissue was graphically shown.

[12] = system: Human duodenal cells (HUTU-80); test: Cytotoxicity and phototoxicity, MTT test; details: for treatment concentration at which cell viability decreased, light irradiation group: laser 671 nm, 2 J/cm^2, concentration based on chlorin e6
Method: as §3

[13] = system: canine kidney cells (MDCK); test: Cytotoxicity and phototoxicity, MTT test; details: 0.25 to 10 μg/ml (based on chlorin e6), no light
Method: as §3

Compound | dispersion in the aqueous phase [2] | body weight, last day relative to before therapy, administration+light irradiation [9] | fat mass, last day relative to before therapy, administration+light irradiation [9] | body weight, last day relative to before therapy, administration only [9] | fat mass, last day relative to before therapy, administration only [9] | plasma GIP concentration, administration+light irradiation (GIP) | plasma GIP concentration, administration only (GIP) | plasma insulin concentration, administration+light irradiation (insulin) | plasma insulin concentration, administration only (insulin) | treatment concentration at which cell viability decreased, light irradiation group [12] | also measured
C=Cc1c(C)c2cc3nc(c(CC(=O)O)c4[nH]c(cc5nc(cc1[nH]2)C(C)=C5CC)c(C)c4C(=O)O)[C@@H](CCC(=O)O)[C@@H]3C [chlorin e6] | could not be dispersed in the aqueous phase |  |  |  |  |  |  |  |  |  | ability to form active oxygen (singlet oxygen) [1]: could hardly form active oxygen
oleic acid-polyethylene glycol-chlorin e6 [OA-PEG-Ce6] | well dispersed in water | 83.6% | 47.2% | 91.1% | 62.8% | 177.7 pg/mL | 435.5 pg/mL | 758.0 pg/mL | 210.5 pg/mL | ≥ 0.5 µg/mL | amount absorbed by the cells [3]: more absorbed by the cells than polyethylene glycol-chlorin e6 (PC); incorporation into cells versus conjugate without targeting substance [4]: more incorporated into cells than polyethylene glycol-chlorin e6 (PC); incorporation into HUTU-80 versus MDCK cells [5]: more incorporated into human duodenal cells (HUTU-80) than in canine kidney epithelial cells (MDCK); intracellular active oxygen generation (DCFDA green fluorescence) [6]: generated a large amount of active oxygen; intracellular uptake (fluorescence intensity) with increasing oleylethanolamine [7]: intracellular uptake was reduced; intracellular accumulation rate with increasing GPR119 expression [8]: partially increased; concentration at which cell viability decreased, light non-irradiation group [10]: ≥ 2500 ng/mL; accumulation degree of photosensitizer in the duodenum [11]: remarkably large amount of photosensitizer was accumulated
polyethylene glycol-chlorin e6 [reference compound] | well dispersed in water | 90.1% | 60.0% | 93.1% | 68.4% | 339.6 pg/mL | 289.1 pg/mL | 374.3 pg/mL | 304.3 pg/mL | ≥ 2.5 µg/mL | change in cell viability, light non-irradiation group ([12]; 0.25 to 10 μg/ml (based on chlorin e6), no light): almost no change in cell viability; change in cell viability, light non-irradiation group [13]: no change in the cell viability
